Like-named read-outs stand apart in the source and are kept apart here.

The record followed here is patent publication US5639783A, “Ketone derivatives” (Mitsubishi Chemical Corporation, priority 1991, dated 1997).

Format in all cases: biochemical
For one test, the target named is T1, cathepsin L (Rattus norvegicus, UniProt P07154).
T1 construct: Cathepsin L was purified from rat kidney; from tissue; host or cells: rat kidney
The test is described as follows: Thiol protease inhibitory activity, cathepsin L purified from rat kidney. To be noted: Table 3. The procedure:
(§1) Inhibitory activity against papain (P-3125, Sigma) and cathepsin B (C-6286, Sigma) was assayed according to the method described in a literature [Biochemical Journal, 201, 189 (1982)]. Cathepsin L was purified from rat kidney according to the method in a literature [Journal of Biochemistry, 100, 35 (1986)], and the inhibitory activity against it was assayed in the same manner as described in the above literature for cathepsin B. Furthermore, m-calpain was purified from rat brain according to a known method [Journal of Biological Chemistry, 254, p. 3210 (1984)] and the inhibitory activity against it was assayed by a method described in a literature [Journal of Biological Chemistry, 259, 12489 (1984)]. It is evident from Tables 3 and 4 that the compounds of the present invention have a potent inhibitory activity against thiol proteases such as papain, cathepsin B, cathepsin L or m-calpain.

For a further test, the target named is T2, papain (Carica papaya, UniProt P00784).
T2 sequence (P00784 134-345): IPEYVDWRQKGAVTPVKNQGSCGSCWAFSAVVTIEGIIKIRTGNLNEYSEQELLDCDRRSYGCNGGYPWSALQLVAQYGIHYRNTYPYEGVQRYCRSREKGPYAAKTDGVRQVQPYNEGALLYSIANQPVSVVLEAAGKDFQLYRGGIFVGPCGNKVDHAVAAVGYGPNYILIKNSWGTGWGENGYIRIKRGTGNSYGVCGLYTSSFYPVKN
The test is described as follows: Thiol protease inhibitory activity, papain (P-3125, Sigma). As for the experimental part:
as §1

The next test has as its target T3, cathepsin B (Bos taurus, UniProt P07688).
T3 construct: purchased Sigma C-6286
The test is described as follows: Thiol protease inhibitory activity, cathepsin B (C-6286, Sigma). The note with it: Table 3. The procedure: as §1

The target in a further test is T4, m-calpain (Rattus norvegicus, UniProt Q07009).
T4 construct: m-calpain was purified from rat brain; from tissue; host or cells: rat brain
T4 sequence (Q07009 20-700 limits assumed): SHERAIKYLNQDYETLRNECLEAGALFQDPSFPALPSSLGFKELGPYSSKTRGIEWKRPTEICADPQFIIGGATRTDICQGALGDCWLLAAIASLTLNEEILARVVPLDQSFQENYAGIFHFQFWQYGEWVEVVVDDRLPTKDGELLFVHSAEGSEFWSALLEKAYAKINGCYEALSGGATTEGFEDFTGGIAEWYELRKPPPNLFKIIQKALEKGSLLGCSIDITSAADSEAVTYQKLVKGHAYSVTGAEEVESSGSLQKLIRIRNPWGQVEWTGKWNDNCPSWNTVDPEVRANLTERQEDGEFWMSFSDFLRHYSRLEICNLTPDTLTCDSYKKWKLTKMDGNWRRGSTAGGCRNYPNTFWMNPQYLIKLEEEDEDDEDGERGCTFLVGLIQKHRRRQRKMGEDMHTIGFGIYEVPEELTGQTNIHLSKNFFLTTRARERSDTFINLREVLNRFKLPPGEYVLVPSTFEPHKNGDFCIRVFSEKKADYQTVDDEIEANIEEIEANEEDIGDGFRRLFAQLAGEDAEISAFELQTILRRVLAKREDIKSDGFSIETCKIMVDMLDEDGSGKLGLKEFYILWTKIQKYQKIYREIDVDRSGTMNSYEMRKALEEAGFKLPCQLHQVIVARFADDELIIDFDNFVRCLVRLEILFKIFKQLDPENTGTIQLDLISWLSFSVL
T4 sequence (Q64537 1-270 partner): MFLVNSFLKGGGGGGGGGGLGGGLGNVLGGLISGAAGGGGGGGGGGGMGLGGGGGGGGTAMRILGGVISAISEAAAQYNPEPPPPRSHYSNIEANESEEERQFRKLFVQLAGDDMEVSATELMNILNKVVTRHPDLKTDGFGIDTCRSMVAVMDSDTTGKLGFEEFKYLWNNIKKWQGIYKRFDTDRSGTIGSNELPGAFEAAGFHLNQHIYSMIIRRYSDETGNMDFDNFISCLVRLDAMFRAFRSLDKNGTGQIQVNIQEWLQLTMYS
Put plainly: Thiol protease inhibitory activity, m-calpain purified from rat brain. As for the experimental part:
as §1

T1 sequence (P07154 114-334): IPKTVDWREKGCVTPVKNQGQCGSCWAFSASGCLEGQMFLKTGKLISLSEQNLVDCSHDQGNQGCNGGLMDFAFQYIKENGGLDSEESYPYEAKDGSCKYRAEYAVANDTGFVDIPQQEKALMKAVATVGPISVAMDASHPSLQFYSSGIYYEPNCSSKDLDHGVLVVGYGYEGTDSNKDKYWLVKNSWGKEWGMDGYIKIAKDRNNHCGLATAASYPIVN

What is called IC50 is the concentration needed to halve the response being measured. For `CCCC[C@H](NC(=O)[C@H](CC(C)C)NC(=O)COc1ccccc1)C(=O)C[S+]([O-])Cc1ccco1` (stereo partly drawn) [4 (No. 83), (s)-1-furfurylsulfinyl-3-((s)-4-methyl-2-phenoxyacetylaminovalerylamino)-2-heptanone], the IC50 against cathepsin L turned out to be 0.045 µM; on papain, 0.21 µM; on cathepsin B it was 0.044 µM; on m-calpain (Table 3), 12 µM.
In the case of `CCCC[C@H](NC(=O)[C@H](CC(C)C)NC(=O)OCC1CCCCC1)C(=O)CSCc1ccco1` [21 (No. 46), (s)-3-((s)-2-cyclohexylmethoxycarbonylamino-4-methylvalerylamino)-1-furfurylthio-2-heptanone], the IC50 at papain (Table 3, read-out: IC50 papain) is 0.13 µM; against cathepsin B it was 0.14 µM; against m-calpain (Table 3), 4.7 µM.
In the case of `CCCC[C@H](NC(=O)[C@H](CC(C)C)NC(=O)OCc1ccccc1)C(=O)CSCc1ccco1` [22 (No. 48), (s)-3-((s)-2-benzyloxycarbonylamino-4-methylvalerylamino)-1-furfurylthio-2-heptanone], the half-maximal inhibitory concentration (IC50) at cathepsin L came to 1.3 µM; at papain (Table 3, read-out: IC50 papain), 1.1 µM; against cathepsin B, 0.98 µM; against m-calpain (Table 3), 11 µM.
Regarding `CCCC[C@H](NC(=O)[C@H](CC(C)C)NC(=O)OCc1ccccc1F)C(=O)CSCc1ccco1` [23 (No. 49), (s)-3-[(s)-2-(2-fluorobenzyloxycarbonylamino)-4-methylvalerylamino]-1-furfurylthio-2-heptanone], the IC50 at cathepsin L came out at 1.1 µM; at papain (Table 3, read-out: IC50 papain), 22 µM; against cathepsin B, 3.7 µM; against m-calpain (Table 3), 6.4 µM.
For `CCCC[C@H](NC(=O)[C@H](CC(C)C)NC(=O)OCc1ccccn1)C(=O)CSCc1ccco1` [28 (No. 59), (s)-1-furfurylthio-3-[(s)-4-methyl-2-(2-pyridylmethoxycarbonylamino)valerylamino]-2-heptanone], the IC50 at cathepsin L is 15 µM; at papain (Table 3, read-out: IC50 papain) it was 3.4 µM; at cathepsin B it was 2.1 µM; on m-calpain (Table 3), 11 µM.
On to `CCCC[C@H](NC(=O)[C@H](CC(C)C)NC(=O)Cc1ccccc1)C(=O)CSCc1ccco1` [30 (No. 66), (s)-1-furfurylthio-3-((s)-4-methyl-2-phenylacetylaminovalerylamino)-2-heptanone], for which the half-inhibitory concentration (IC50) on papain was 0.15 µM; against cathepsin B, 0.59 µM; against m-calpain (Table 3), 5.1 µM.
For the molecule `CCCC[C@H](NC(=O)[C@H](CC(C)C)NC(=O)Cc1ccc(F)cc1)C(=O)CSCc1ccco1` [31 (No. 69), (s)-3-[(s)-2-(4-fluorophenylacetylamino)-4-methylvalerylamino]-1-furfurylthio-2-heptanone], the IC50 on cathepsin L was 0.63 µM; at papain (Table 3, read-out: IC50 papain) it was 1.4 µM; against cathepsin B, 0.55 µM; on m-calpain (Table 3), 22 µM.
The matching figures for `CCCC[C@H](NC(=O)[C@H](CC(C)C)NC(=O)Cc1cccc2ccccc12)C(=O)CSCc1ccco1` [33 (No. 76), (s)-1-furfurylthio-3-[(s)-4-methyl-2-(1-naphtylacetylamino)valerylamino]-2-heptanone]: 0.27 µM, 0.7 µM, 1.2 µM and 6.4 µM.
The like results for `CCCC[C@H](NC(=O)[C@H](CC(C)C)NC(=O)Cc1csc2ccccc12)C(=O)CSCc1ccco1` [34 (No. 79), (s)-3-[(s)-2-(3-benzothienylacetylamino)-4-methylvalerylamino]-1-furfurylthio-2-heptanone] were, in that order, 0.51 µM, 0.36 µM, 0.41 µM and 5.5 µM.
As for `CCCC[C@H](NC(=O)[C@H](CC(C)C)NC(=O)COC1CCCCC1)C(=O)CSCc1ccco1` [35 (No. 81), (s)-3-((s)-2-cyclohexyloxyacetylamino-4-methylvalerylamino)-1-furfurylthio-2-heptanone], the IC50 on cathepsin L came to 1.1 µM; at papain (Table 3, read-out: IC50 papain), 0.21 µM; on cathepsin B, 0.7 µM; at m-calpain (Table 3), 8.6 µM.
As to `CCCC[C@H](NC(=O)[C@H](CC(C)C)NC(=O)COc1ccccc1Cl)C(=O)CSCc1ccco1` [39 (No. 88), (s)-3-[(s)-2-(2-chlorophenoxyacetylamino)-4-methylvalerylamino]-1-furfurylthio-2-heptanone], the IC50 was determined as 0.25 µM on papain (Table 3, read-out: IC50 papain); 0.29 µM against cathepsin B; 2.2 µM against m-calpain (Table 3).
Regarding `CCCC[C@H](NC(=O)[C@H](CC(C)C)NC(=O)COc1cccc2ccccc12)C(=O)CSCc1ccco1` [52 (No. 114), (s)-1-furfurylthio-3-[-(s)-4-methyl-2-(1-naphtoxyacetylamino)valerylamino]-2-heptanone], the concentration for half-maximal inhibition (IC50) stood at 0.34 µM at papain (Table 3, read-out: IC50 papain); 0.82 µM against cathepsin B; 2.5 µM against m-calpain (Table 3).
For the molecule `CCCC[C@H](NC(=O)[C@H](CC(C)C)NC(=O)c1cc2cccc(F)c2o1)C(=O)CSCc1ccco1` [93 (No. 182), (s)-3-[(s)-2-(7-fluoro-2-benzofuranylcarbonylamino)-4-methylvalerylamino]-1-furfurylthio-2-heptanone], the concentration for half-maximal inhibition (IC50) against m-calpain (Table 4) is 7.8 µM.
Same read-out and setting: the result for `CCCC[C@H](NC(=O)[C@H](CC(C)C)NC(=O)OCc1ccccc1)C(=O)CSCc1ccccn1` [105 (No. 226), (s)-3-((s)-2-benzyloxycarbonylamino-4-methylvalerylamino)-1-(2-pyridylmethylthio)-2-heptanone] reads 1.3 µM; that for `CCCC[C@H](NC(=O)[C@H](CC(C)C)NC(=O)OCc1ccccc1)C(=O)CSCc1cccnc1` [106 (No. 228), (s)-3-((s)-2-benzyloxycarbonylamino-4-methylvalerylamino)-1-(3-pyridylmethylthio)-2-heptanone], 3.1 µM; that for `CCCC[C@H](NC(=O)[C@H](CC(C)C)NC(=O)OCc1ccccc1)C(=O)CSCc1ccncc1` [107 (No. 230), (s)-3-((s)-2-benzyloxycarbonylamino-4-methylvalerylamino)-1-(4-pyridylmethylthio)-2-heptanone], 4.2 µM.
Molecule `CC(C)C[C@H](NC(=O)OCc1ccccc1)C(=O)N[C@@H](Cc1ccccc1)C(=O)CSCc1ccco1` [139 (No. 297), (s)-3-((s)-2-benzyloxycarbonylamino-4-methylvalerylamino)-1-furfurylthio-4-phenyl-2-butanone] had an IC50 on m-calpain (Table 4) of 4.5 µM.
`CC(C)C[C@H](NC(=O)Cc1csc2ccccc12)C(=O)N[C@@H](Cc1ccccc1)C(=O)CSCc1ccco1` [162 (No. 345), (s)-3-[(s)-2-(3-benzothienylacetylamino)-4-methylvalerylamino]-1-furfurylthio-4-phenyl-2-butanone]: the IC50 at papain (Table 3, read-out: IC50 papain) was determined as 0.95 µM; against cathepsin B, 5.3 µM; at m-calpain (Table 3) it was 3.7 µM.
For the molecule `CC(C)C[C@H](NC(=O)OCc1ccccc1)C(=O)N[C@@H](Cc1ccccc1)C(=O)CSCc1ccc(Cl)s1` [183 (No. 423), (s)-3-((s)-2-benzyloxycarbonylamino-4-methylvalerylamino)-1-(5-chloro-2-thienylmethylthio)-4-phenyl-2-butanone], the IC50 at m-calpain (Table 4) was determined as 9.6 µM.
The molecule `CC(C)C[C@H](NC(=O)OCc1ccccc1)C(=O)N1CCC[C@H]1C(=O)CSCc1ccco1` [Ref. Ex. No. 3, (s)-1-((s)-2-benzyloxycarbonylamino-4-methylvaleryl)-2-furfurylthioacetylpyrrolidine, reference compound] gave an IC50 on m-calpain (Table 4) above 100 µM.
